From patent US20160303114A1 (Laguna Pharmaceuticals, Inc., priority 2013, published 2016)

Columns and labels:
[1] = Example 5: concentrations of vanoxerine and its metabolites in patients after a 300 mg dose of vanoxerine; assay type: in vivo, human; conditions: low concentration group, 300 mg vanoxerine
Experimental: Each patient gave samples before administration of their dose, and then again at nine further time points, 30 minutes after administration, 1, 2, 3, 4, 6, 8, 12, and 24 hours post administration.

[2] = Example 4: plasma concentrations of vanoxerine in patients after an oral vanoxerine HCL tablet; assay type: in vivo, human; conditions: outlier patient, CYP2D6 slow metabolizer
Description: The results identified high levels of variability between patients and a single outlier, who was particularly profiled to determine the possible cause of the high plasma concentration levels.
Accordingly, the individual patient could have received administration of ½ to ¼ the dose of other patients for the same effective plasma concentration as the majority of the patients in the study.

[3] = Preliminary studies of daily use of vanoxerine over 7, 10 and 14 days; assay type: in vivo; conditions: daily use over 7, 10, and 14 days, 75, 100, 125, and 150 mg a day
Description: However, control and prevention of events of cardiac arrhythmia are important to these patients to prevent future recurrences and the deleterious effects and morbidity.

[4] = healthy subjects, higher doses of vanoxerine; cited from earlier work

## Fc1ccc(C(OCCN2CCN(CCCc3ccccc3)CC2)c2ccc(F)cc2)cc1 [Vanoxerine, 1-[2-[bis(4-fluorophenyl)methoxy]ethyl]-4-(3-phenylpropyl)piperazine]
[1]
  plasma levels, highest at any time point: ~40 ng/mL
[2]
  plasma concentration: unusually high plasma concentration
[3]
  effects of daily use: increased heart rate and systolic blood pressure
[4]
  effects seen at higher doses: concentration difficulties, increase systolic blood pressure, asthenia, and a feeling of drug influence
